SMILES strings stand for the structures.

The term Ki denotes the equilibrium dissociation constant of an inhibitor or competing ligand from its target.

A short description of data set [1]: Selectivity ratio of Ki for recombinant full lenght human PDE4A to bovine brain PDE1.
Data set [2] in a line: Inhibition of bovine brain PDE1 using fluorescent labeled cGMP as substrate after 15 mins by IMAP assay. More on the design: species or system Bos taurus.
Data set [3] has as its target 3',5'-cyclic-AMP phosphodiesterase 4A (Homo sapiens, UniProt P27815). In words: Inhibition of recombinant full lenght human PDE4A using fluorescent labeled cAMP as substrate after 15 mins by IMAP assay.
Data set [4] in a line: Intrinsic clearance in human liver microsomes. It is filed as ADME. The following applies: read-out: CLH. Background: Liver microsomes are a subcellular fraction often used to study metabolism.

Chain of 3',5'-cyclic-AMP phosphodiesterase 4A (P27815 whole entry): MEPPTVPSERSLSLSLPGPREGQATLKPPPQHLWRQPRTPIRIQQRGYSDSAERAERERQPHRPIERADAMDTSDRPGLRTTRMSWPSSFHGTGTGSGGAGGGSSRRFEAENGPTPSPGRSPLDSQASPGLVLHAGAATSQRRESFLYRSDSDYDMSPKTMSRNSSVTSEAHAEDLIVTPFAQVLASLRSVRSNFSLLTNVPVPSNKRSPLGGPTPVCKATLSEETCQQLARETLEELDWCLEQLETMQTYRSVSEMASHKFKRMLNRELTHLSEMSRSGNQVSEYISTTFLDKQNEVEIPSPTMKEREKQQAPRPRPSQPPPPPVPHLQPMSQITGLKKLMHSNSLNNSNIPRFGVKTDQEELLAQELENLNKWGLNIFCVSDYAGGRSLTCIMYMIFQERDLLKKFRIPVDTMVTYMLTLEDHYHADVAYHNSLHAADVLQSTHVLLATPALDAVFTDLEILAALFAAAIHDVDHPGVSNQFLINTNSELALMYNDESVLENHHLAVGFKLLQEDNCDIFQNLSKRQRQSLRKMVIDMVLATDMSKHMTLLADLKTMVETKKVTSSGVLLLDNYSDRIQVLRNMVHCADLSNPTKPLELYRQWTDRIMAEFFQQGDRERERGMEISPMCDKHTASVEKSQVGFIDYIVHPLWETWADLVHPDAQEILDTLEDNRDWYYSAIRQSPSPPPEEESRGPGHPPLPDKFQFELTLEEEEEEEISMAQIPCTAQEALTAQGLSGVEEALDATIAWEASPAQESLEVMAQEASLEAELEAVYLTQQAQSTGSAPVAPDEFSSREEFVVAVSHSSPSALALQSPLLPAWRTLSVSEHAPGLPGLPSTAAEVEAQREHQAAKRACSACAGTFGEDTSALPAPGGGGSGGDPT

In the case of `CN1C(=O)c2c(nn(Cc3ccc(-c4cccc(F)n4)cc3)c2N)N2C1=N[C@@H]1CCC[C@@H]12`, the Ratio Ki in data set [1] worked out at 414. Further, the Ki turned out to be 5.8 nM in data set [2] and 2400 nM in data set [3].
Regarding `CN1C(=O)c2c(nn(Cc3ccc(-c4cccc(F)n4)cc3)c2NC2CCCCC2)N2C1=N[C@@H]1CCC[C@@H]12`, the Ratio Ki in data set [1] was 571. Further, the Ki in data set [2] amounted to 2.8 nM; in data set [3], 1600 nM.
Consider `CN1C(=O)c2c(nn(Cc3ccc(-c4cccc(F)n4)cc3)c2N(C)C)N2C1=N[C@@H]1CCC[C@@H]12`, for which the Ratio Ki in data set [1] was found to be 9.2. Further, the Ki in data set [2] amounted to 120 nM; in data set [3], 1100 nM.
As for `CN1C(=O)c2c(nn(Cc3ccc(-c4ccccn4)cc3)c2Nc2ccccc2)N2C1=N[C@H]1CCC[C@H]12`, the inhibition constant (Ki) stood at 5.3 nM in data set [2] and 8400 nM in data set [3]. For the same molecule, in data set [4], the CLint scaled turned out to be 72 mL/min/kg.
Turning to `CN1C(=O)c2c(nn(Cc3ccc(C4CCCN4)cc3)c2Nc2ccccc2)N2C1=N[C@@H]1CCC[C@@H]12` (stereo partly specified), the Ratio Ki in data set [1] came to 750. The results for the inhibition constant (Ki) in data set [2] and in data set [3] were 1.6 nM and 1200 nM, respectively.
For `CN1C(=O)c2c(nn(Cc3ccc(S(C)(=O)=O)cc3)c2Nc2ccccc2)N2C1=N[C@@H]1CCC[C@@H]12` the same measures were 133, 0.49 nM and 65 nM.
Taken in the same sequence, the figures for `CN1C(=O)c2c(nn(Cc3ccc(-c4ccc(F)cc4)cc3)c2Nc2ccccc2)N2C1=N[C@@H]1CCC[C@@H]12` were 1120, 0.41 nM and 460 nM.
For `CCCNc1c2c(nn1Cc1ccc(-c3cccc(F)n3)cc1)N1C(=N[C@@H]3CCC[C@@H]31)N(C)C2=O` the same measures were 413, 15 nM and 6200 nM.
As for `CN1C(=O)c2c(nn(Cc3ccc(-c4ncccc4F)cc3)c2Nc2ccccc2)N2C1=N[C@@H]1CCC[C@@H]12`, the Ratio Ki in data set [1] came to 2740. For the same molecule, the inhibition constant (Ki) in data set [2] was 0.073 nM; in data set [3], 200 nM. Besides, the CLint scaled in data set [4] stood at 276 mL/min/kg.
`CN1C(=O)c2c(nn(Cc3ccc(-c4ccccc4)cc3)c2Nc2ccccc2)N2CCN=C12`: the Ratio Ki in data set [1] stood at 1520. Besides, the results for the Ki in data set [2] and in data set [3] were 29 nM and 44000 nM, respectively.
Taken in the same sequence, the figures for `CC(C)[C@@H]1CN2C(=N1)N(C)C(=O)c1c2nn(Cc2ccc(-c3ccccc3)cc2)c1Nc1ccccc1` were 652, 2.3 nM and 1500 nM.
In turn, `CN1C(=O)c2c(nn(Cc3ccc(-c4cccc(F)n4)cc3)c2Nc2ccccc2)N2C1=N[C@H]1CCC[C@H]12` gave a Ki in data set [2] of 5.4 nM. In data set [4], the CLint scaled came out at 51 mL/min/kg.
As to `CN1C(=O)c2c(Nc3ccccc3)nn(CC3CCCC3)c2N2C1=N[C@@H]1CCC[C@@H]12`, in data set [1], the Ratio Ki stood at 2.6. For the same molecule, the figures for the inhibition constant (Ki) in data set [2] and in data set [3] were 770 nM and 2000 nM, respectively.
Taken in the same sequence, the figures for `CC(C)CNc1c2c(nn1Cc1ccc(-c3cccc(F)n3)cc1)N1C(=N[C@@H]3CCC[C@@H]31)N(C)C2=O` were 851, 7.4 nM and 6300 nM.
For `CN1C(=O)c2c(nn(Cc3ccc(-c4ccccc4)cc3)c2Nc2ccccc2)N2C[C@@H](COCc3ccccc3)N=C12` the same measures were over 400, 250 nM and over 100000 nM.
For `CN1C(=O)c2c(nn(Cc3ccc(-c4ccccc4)cc3)c2Nc2ccccc2)N2CC(C3CCOC3)N=C12` (stereo unspecified) the same measures were 857, 14 nM and 12000 nM.
Regarding `CN1C(=O)c2c(nn(Cc3ccc(-c4cccc(F)n4)cc3)c2NCc2ccccc2)N2C1=N[C@@H]1CCC[C@@H]12`, the Ratio Ki in data set [1] stood at 816. Moreover, the Ki is 4.9 nM in data set [2] and 4000 nM in data set [3].
Taken in the same sequence, the figures for `CN1C(=O)c2c(nn(Cc3ccc(-c4cccc(F)n4)cc3)c2Nc2ccncc2)N2C1=N[C@@H]1CCC[C@@H]12` were 12, 31 nM and 370 nM.
For `CNc1c2c(nn1Cc1ccc(-c3cccc(F)n3)cc1)N1C(=N[C@@H]3CCC[C@@H]31)N(C)C2=O` the same measures were 154, 28 nM and 4300 nM.
For `C[C@@H]1CN2C(=N1)N(C)C(=O)c1c2nn(Cc2ccc(-c3ccccc3)cc2)c1Nc1ccccc1` the same measures were 1030, 3.3 nM and 3400 nM.
Turning to `CN1C(=O)c2c(Nc3ccccc3)n[nH]c2N2C1=N[C@@H]1CCC[C@@H]12`, the Ratio Ki in data set [1] worked out at 7. Moreover, the inhibitory constant (Ki) in data set [2] is 1400 nM.
In the case of `CC(C)Nc1c2c(nn1Cc1ccc(-c3cccc(F)n3)cc1)N1C(=N[C@@H]3CCC[C@@H]31)N(C)C2=O`, the Ratio Ki in data set [1] is 458. For the same molecule, the inhibition constant Ki in data set [2] was 12 nM; in data set [3], 5500 nM.
For `CN1C(=O)c2c(nn(Cc3ccc(-c4ccccc4)cc3)c2Nc2ccccc2)N2C[C@@H](Cc3ccccc3)N=C12`, in data set [1], the Ratio Ki is 33. Further, the figures for the Ki in data set [2] and in data set [3] were 390 nM and 13000 nM, respectively.
Taken in the same sequence, the figures for `CN1C(=O)c2c(nn(Cc3ccc(-c4ccccc4)cc3)c2Nc2ccccc2)N2C[C@@H](CO)N=C12` were 683, 6 nM and 4100 nM.
Taken in the same sequence, the figures for `CN1C(=O)c2c(nn(Cc3ccc(-c4cccc(F)n4)cc3)c2NC2CCCC2)N2C1=N[C@@H]1CCC[C@@H]12` were 229, 24 nM and 5500 nM.
For `CN1C(=O)c2c(nn(Cc3ccc(C4CCCN4C)cc3)c2Nc2ccccc2)N2C1=N[C@@H]1CCC[C@@H]12` (stereo partly specified) the same measures were 1150, 2.7 nM and 3100 nM.
Take `CN1C(=O)c2c(nn(Cc3ccc(-c4ccccc4)cc3)c2Nc2ccccc2)N2CC(C)(C)CN=C12`: the Ratio Ki in data set [1] amounted to 2060. Moreover, the Ki worked out at 4.8 nM in data set [2] and 9900 nM in data set [3].
As to `C[C@H]1CN=C2N(C)C(=O)c3c(nn(Cc4ccc(-c5ccccc5)cc4)c3Nc3ccccc3)N21`, the Ratio Ki in data set [1] is 3750. The Ki was 8 nM in data set [2] and 30000 nM in data set [3].
For the molecule `CCCC(C)Nc1c2c(nn1Cc1ccc(-c3cccc(F)n3)cc1)N1C(=N[C@@H]3CCC[C@@H]31)N(C)C2=O` (stereo partly specified), in data set [1], the Ratio Ki worked out at 2000. In addition, the Ki in data set [2] amounted to 1.3 nM; in data set [3], 2600 nM.
In the case of `CN1C(=O)c2c(nn(Cc3ccc(-c4cccc(F)n4)cc3)c2N2CCCC2)N2C1=N[C@@H]1CCC[C@@H]12`, in data set [1], the Ratio Ki is 29. Also, the values for the Ki in data set [2] and in data set [3] were 160 nM and 4600 nM, respectively.
As for `CN1C(=O)c2c(nn(Cc3ccc(-c4ccccc4)cc3)c2Nc2ccccc2)N2CCCN=C12`, the Ratio Ki in data set [1] was over 1500. Besides, the results for the Ki in data set [2] and in data set [3] were 65 nM and over 100000 nM, respectively.
For the molecule `CN1C(=O)c2c(nn(Cc3ccc(-c4cccc(F)n4)cc3)c2Nc2ccccc2)N2C1=N[C@@H]1CCC[C@@H]12` [LENRISPODUN], the affinity in data set [2], expressed as Ki, was 0.15 nM.
`CN1C(=O)c2c(nn(Cc3ccc(-c4cccc(F)n4)cc3)c2N(C)c2ccccc2)N2C1=N[C@@H]1CCC[C@@H]12`: the Ratio Ki in data set [1] worked out at 24. In addition, the Ki in data set [2] is 31 nM; in data set [3] it was 740 nM.
